Consider seven compounds from PubChem BioAssay (NCI).

Some test systems named below: OVCAR-5 ovarian; SF-539 CNS; T-47D breast; SK-MEL-2 melanoma; NCI/ADR-RES ovarian; EKVX NSCLC; CAKI-1 renal; HCT-116 colon; HCC-2998 colon; SNB-19 CNS.
Common to all, as to experiment: NCI anticancer screen, dose series, 48 h

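All cell lines were grown in 96-well plates and treated with compound for 48 hours. At the GI50, growth is halved. The concentration for full growth arrest is given as TGI.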

`C=CCOc1cc(NC(=S)c2ccoc2C)ccc1OC`: the TGI in the experiment on OVCAR-5 ovarian, in the experiment on SF-539 CNS, in the experiment on T-47D breast, in the experiment with SK-MEL-2 melanoma, in the experiment on NCI/ADR-RES ovarian and in the experiment with EKVX NSCLC was greater than 100 µM in each case. Besides, the TGI in the experiment with CAKI-1 renal, with HCT-116 colon, in the experiment with HCC-2998 colon and in the experiment with SNB-19 CNS was greater than 100 µM in each case.

Turning to `CN(CCO)CC[C@H](CSc1ccccc1)Nc1ccc(S(=O)(=O)NC(=O)c2ccc(N3CCC([C@@H](O)c4ccccc4-c4ccc(Cl)cc4)CC3)cc2)cc1S(=O)(=O)C(F)(F)F`, the GI50 in the experiment with OVCAR-5 ovarian was 4.6 µM; in the experiment with SF-539 CNS, 2.67 µM; in the experiment with T-47D breast, 4.26 µM; in the experiment on SK-MEL-2 melanoma, 1.41 µM; in the experiment on NCI/ADR-RES ovarian, greater than 100 µM; with EKVX NSCLC it was 20.4 µM. For the same compound, the GI50 in the experiment with HCT-116 colon was 2.26 µM; in the experiment with HCC-2998 colon, 0.286 µM; in the experiment on SNB-19 CNS, 2.77 µM. The TGI with OVCAR-5 ovarian is greater than 50.4 µM; in the experiment on SF-539 CNS, 8 µM; in the experiment with T-47D breast, 59.6 µM; in the experiment on SK-MEL-2 melanoma, 4.28 µM; with NCI/ADR-RES ovarian, greater than 100 µM; in the experiment on EKVX NSCLC, greater than 100 µM. Besides, the TGI is greater than 29.2 µM in the experiment with CAKI-1 renal, 6.8 µM in the experiment on HCT-116 colon, 1.69 µM with HCC-2998 colon and 8.57 µM in the experiment on SNB-19 CNS.

As for `O=C1C(Cl)=C(Nc2cccc(Cl)c2)C(=O)N1Cc1ccc(Cl)cc1`, the GI50 in the experiment with OVCAR-5 ovarian was 0.864 µM; with SF-539 CNS it was 0.196 µM; in the experiment on T-47D breast, 3.38 µM; in the experiment with SK-MEL-2 melanoma it was 2.2 µM; in the experiment on NCI/ADR-RES ovarian it was 0.298 µM; with EKVX NSCLC, 6.78 µM. In addition, the GI50 in the experiment on CAKI-1 renal was 0.919 µM; in the experiment on HCT-116 colon, 0.442 µM; in the experiment with HCC-2998 colon, 1.16 µM; with SNB-19 CNS it was 4.06 µM. Further, the TGI with OVCAR-5 ovarian is 15.1 µM; in the experiment with SF-539 CNS it was 2.37 µM; with T-47D breast, 34 µM; in the experiment with NCI/ADR-RES ovarian it was 3.28 µM; in the experiment on EKVX NSCLC it was 23.7 µM; in the experiment with CAKI-1 renal, 13.9 µM. Also, the results for the TGI with HCT-116 colon, in the experiment on HCC-2998 colon and with SNB-19 CNS were 6.53 µM, 4.72 µM and 33 µM, respectively.

In the case of `C[C@H](NC(=O)[C@@H](C)N)[C@H](Oc1ccc2c(cnn2-c2ccc(F)cc2)c1)c1ccc2c(c1)OCCO2`, the GI50 with OVCAR-5 ovarian was 2.29 µM; with SF-539 CNS it was 1.65 µM; with T-47D breast, 2.19 µM; with SK-MEL-2 melanoma it was 1.91 µM; with NCI/ADR-RES ovarian it was 2.69 µM; in the experiment on EKVX NSCLC it was 1.04 µM. The GI50 in the experiment with CAKI-1 renal was 1.09 µM; with HCT-116 colon it was 1.87 µM; in the experiment on HCC-2998 colon it was 1.78 µM; in the experiment on SNB-19 CNS it was 3.29 µM. For the same compound, the TGI in the experiment with OVCAR-5 ovarian is 7.11 µM; with SF-539 CNS, 3.54 µM; in the experiment on T-47D breast, 5.41 µM; in the experiment with SK-MEL-2 melanoma, 3.92 µM; in the experiment on NCI/ADR-RES ovarian, 13.5 µM; in the experiment with EKVX NSCLC, 12.1 µM. Also, the TGI is 4.79 µM with CAKI-1 renal, 3.73 µM with HCT-116 colon, 3.66 µM in the experiment on HCC-2998 colon and 12.4 µM with SNB-19 CNS.

For the compound `COc1ccc(-c2nn(-c3cccc(Cl)c3)cc2-c2cc(-c3cccs3)[nH]c(=S)n2)cc1`, the GI50 in the experiment on OVCAR-5 ovarian was 6.38 µM; with SF-539 CNS, 4.7 µM; in the experiment with T-47D breast it was 4.16 µM; in the experiment on SK-MEL-2 melanoma, 2.87 µM; with NCI/ADR-RES ovarian, 4.77 µM; with EKVX NSCLC, 1.93 µM. The GI50 with CAKI-1 renal was 3.03 µM; with HCT-116 colon, 2.38 µM; with HCC-2998 colon it was 4.03 µM; in the experiment with SNB-19 CNS, 4.93 µM. Further, the TGI was greater than 100 µM in the experiment with OVCAR-5 ovarian; 19.7 µM in the experiment on SF-539 CNS; 34.6 µM with T-47D breast; 6.9 µM in the experiment with SK-MEL-2 melanoma; 41.8 µM in the experiment on NCI/ADR-RES ovarian; 21.7 µM in the experiment on EKVX NSCLC. In addition, the TGI is 8.68 µM in the experiment on CAKI-1 renal, 11.2 µM in the experiment with HCT-116 colon, 16.4 µM with HCC-2998 colon and greater than 100 µM in the experiment with SNB-19 CNS.

Turning to `CCOC(=O)N1CCN(/[N+]([O-])=N/Oc2ccc([N+](=O)[O-])cc2[N+](=O)[O-])CC1`, the GI50 with OVCAR-5 ovarian is 2.16 µM; in the experiment on SF-539 CNS, 0.424 µM; with T-47D breast, 8 µM; in the experiment on SK-MEL-2 melanoma it was 7.08 µM; in the experiment with NCI/ADR-RES ovarian, 3.88 µM; in the experiment with EKVX NSCLC, 12.6 µM. The GI50 is 0.521 µM in the experiment on CAKI-1 renal, 0.929 µM with HCT-116 colon, 1.12 µM with HCC-2998 colon and 6.68 µM in the experiment on SNB-19 CNS. The TGI was 9.09 µM in the experiment on OVCAR-5 ovarian; 20.9 µM in the experiment with SF-539 CNS; greater than 67.1 µM in the experiment on T-47D breast; 25.9 µM in the experiment with SK-MEL-2 melanoma; 14.9 µM with NCI/ADR-RES ovarian; 32.6 µM in the experiment on EKVX NSCLC. In addition, the TGI in the experiment on CAKI-1 renal turned out to be 1.96 µM; in the experiment with HCT-116 colon, 3.66 µM; in the experiment on HCC-2998 colon it was 2.33 µM; in the experiment with SNB-19 CNS, 20.7 µM.

With `COc1cccc(N2CCN(CC(=O)N3CCN(c4nnc(-c5ccc(Cl)cc5)c(-c5ccc(Cl)cc5)n4)CC3)CC2)c1`, the GI50 in the experiment with OVCAR-5 ovarian was greater than 100 µM; in the experiment with SF-539 CNS, 11.5 µM; with T-47D breast it was 3.73 µM; in the experiment on SK-MEL-2 melanoma, 35.1 µM; in the experiment on NCI/ADR-RES ovarian it was 19.9 µM; in the experiment on EKVX NSCLC it was 12.3 µM. For the same compound, the GI50 is 14.8 µM in the experiment on CAKI-1 renal, 5.98 µM with HCT-116 colon, greater than 100 µM in the experiment on HCC-2998 colon and 37.9 µM in the experiment on SNB-19 CNS. Moreover, the TGI with OVCAR-5 ovarian is greater than 100 µM; in the experiment on SF-539 CNS it was 90.7 µM; in the experiment on T-47D breast, 47.6 µM; with SK-MEL-2 melanoma it was greater than 100 µM; with NCI/ADR-RES ovarian it was greater than 100 µM; in the experiment on EKVX NSCLC, 93.7 µM. Also, the TGI in the experiment with CAKI-1 renal, in the experiment with HCT-116 colon, in the experiment on HCC-2998 colon and in the experiment on SNB-19 CNS was greater than 100 µM throughout.
